Where two headings read alike, the source gives them in different places.
Legend:
Format in all cases: in vivo
[1] = system: rat paw swelling induced by monosodium urate (MSU); test: rat paw swelling model induced by monosodium urate (MSU)
Source text: Gout is a disease unique to human, and gouty arthritis is an inflammatory reaction caused by the deposition of monosodium urate (MSU) in local joint tissues. Since purine metabolism pathways in some mammals such as mice and rabbits are different from those in humans, it is impossible to construct a gouty arthritis model by the method of interfering with purine metabolism disorders, so the most direct method for causing gouty arthritis is to directly inject MSU into the joint cavity of the model animal. The model is only used for simulating local joint inflammation of gout, is suitable for observation of local arthritis symptoms, is a common method for screening anti-inflammatory effects of gout drugs at present, and has the advantages of stability, easy operation and the like. (Reference: Li Na, Hua Long, and Yuan Hui. Research progress of gout animal models [J]. Medical theory and practice, 2016(24).
The anti-gout effect of the compound prepared in the above Example was detected by using a rat paw swelling model induced by monosodium urate (MSU), and the control sample was methylprednisolone.
Experimental method: MSU was used as an inflammatory agent, injected subcutaneously into the hind paws of rats to cause paw swelling, and then the volume of the paws was measured, and the swelling rates and swelling inhibition rates of the treatment group and the control group were compared. On the day of the experiment, the volume of right hind paw (ml) of each rat was measured firstly, and then after the onset of inflammation, the volume of right hind paw was measured so that the difference of volume of paw before and after inflammation was swelling degree, and the swelling inhibition rate of paw (swelling inhibition rate %=(C−T)/C*100%); C=swelling rate of the control group %, and T=swelling rate of the treatment group) was calculated. This method is one of the commonly used methods for screening anti-inflammatory effects of gout drugs, and the model is stable and easy to operate.
(2) One week before the subcutaneous injection of MSU into the feet and soles of the rats, the rats were given different doses of the test drugs, and the drugs were given by gavage once a day, for seven consecutive days. The circumference of the right hind paw was marked and measured before the last administration, and the average value of the two measurements was taken as the standard. 1 h after the last administration, animals in other groups were given 50 μL of 2% MSU in addition to the blank control group, and the paw circumference was measured 1 h after the onset of inflammation. […]

[2] = system: ICR mice; conditions: p.o.
Description: The experiment was designed according to the “Technical Guideline for Acute Toxicity Test of Chemical Drugs” issued by the State Food and Drug Administration in March 2005. The doses administered were 4 g/kg, 4.91 g/kg, 6.14 g/kg, 7.68 g/kg, 9.6 g/kg, 12 g/kg, and 15 g/kg (the dose could be adjusted according to the actual test results), 12 ICR mice per dose group. If the administration volume is greater than 0.5 ml, it is better to perform the drug administration in two or more times (Note: according to the national standard GB 15193.3-2014, if multiple drug administrations are required, the time interval should be 4 h to 6 h each time, and the patient should be fasted on the day before drug administration).

[3] = system: carrageenan-induced mouse paw swelling; test: carrageenan-induced mouse paw swelling model
Description: The anti-inflammatory effects of the compounds prepared in the above Examples were detected using a carrageenan-induced mouse paw swelling model, and the control sample was methylprednisolone:
Carrageenan-induced mouse paw swelling model is a classical acute inflammation model commonly used for evaluating or screening anti-inflammatory effects of drugs. When carrageenan is injected into the paw of mice, a series of reactions similar to human acute inflammation such as local capillary dilatation, increased vascular permeability, exudation and edema can be caused, so the model can be widely used in the evaluation of new drugs.
Reference for experimental method: Yang Huan, Cheng Xiao, Wang Yuehua, Du Guanhua. Effects of esculin on the swelling of toes and inflammation induced by carrageenan in mice [J]. Chinese Journal of New Drugs, 2016(25):2322.
On the day of the experiment, the circumference of right hind paw (cm) of each mouse was measured firstly, and then, after the onset of inflammation, the circumference of right hind paw was measured so that the difference of the circumferences of the paws before and after inflammation was swelling degree, and the swelling inhibition rate of paw (swelling inhibition rate %=(C−T)/C*100%); C=swelling rate of the control group %, and T=swelling rate of the treatment group) was calculated.
(2) Gavage administration was performed once a day for seven consecutive days. The circumference of the right hind paw was marked and measured before the last administration, and the average value of the two measurements was taken as the standard. 30 min after the last administration, 20 μL/mice of 0.5% carrageenan was injected into the right hind ankle of the mice to induce inflammation, and the circumference of paw was measured 180 min after the onset of inflammation. […]

CCCCC(=O)O[C@]1(/C(CO)=N/O)CC[C@H]2[C@@H]3C[C@H](C)C4=CC(=NO)C=C[C@]4(C)[C@H]3[C@@H](O)C[C@@]21C [Example 17, (6S,8S,9S,10R,11S,13S,14S,17R,E)-11-hydroxy-17-((E)-2-hydroxy-1-(hydroxyimino)ethyl)-3-(hydroxyimino)-6,10,13-trimethyl-6,7,8,9,10,11,12,13,14,15,16,17-dodecahydro-3H-cyclopentane[α]phenanthrene-17-yl valerate]
inhibition in vivo at 90 mg/kg ([1]; Rattus norvegicus, po, 1 h, SD rats, 90 mg/kg by gavage once a day for seven days, 1 h after onset of inflammation, read-out: Swelling inhibition rate): 96.4% | inhibition in vivo at 0.36 mg/kg ([1]; Rattus norvegicus, po, 1 h, rat, MSU-induced paw swelling, dosage 0.36 mg/kg, read-out: Swelling inhibition rate): 10.3% | inhibition in vivo at 1.8 mg/kg ([1]; Rattus norvegicus, po, 1 h, rat, MSU-induced paw swelling, dosage 1.8 mg/kg, read-out: Swelling inhibition rate): 56.1% | inhibition in vivo at 9 mg/kg ([1]; Rattus norvegicus, po, 1 h, rat, MSU-induced paw swelling, dosage 9 mg/kg, read-out: Swelling inhibition rate): 78.2% | inhibition in vivo at 90 mg/kg ([1]; Rattus norvegicus, po, 1 h, rat, MSU-induced paw swelling, dosage 90 mg/kg, read-out: Swelling inhibition rate): 97% | change in vivo at 90 mg/kg ([1]; Rattus norvegicus, po, SD rats, 90 mg/kg by gavage once a day for seven days, 1 h after onset of inflammation, read-out: Swelling degree): 11.9% | Swelling value ([1]; SD rats, 90 mg/kg by gavage once a day for seven days, 1 h after onset of inflammation): 0.14 mL | Mean volume of paw after administration ([1]; SD rats, 90 mg/kg by gavage once a day for seven days, 1 h after onset of inflammation (50 μL 2% MSU)): 1.32 mL | Mortality ([2]; 4 g/kg): 0/12 | Mortality ([2]; 4.91 g/kg): 0/12 | Mortality ([2]; 6.14 g/kg): 0/12 | Mortality ([2]; 7.68 g/kg): 0/12 | Mortality ([2]; 9.6 g/kg): 0/12 | Mortality ([2]; 12 g/kg): 0/12 | Mortality ([2]; 15 g/kg): 0/12 | Swelling value ([3]; ICR mice, 130 mg/kg by gavage once a day for seven days, 180 min after onset of inflammation): 0.01 cm | Circumference of the paw after administration ([3]; ICR mice, 130 mg/kg by gavage once a day for seven days, 180 min after onset of inflammation (0.5% carrageenan)): 1.43 cm | inhibition in vivo at 0.26 mg/kg ([3]; Mus musculus, po, 3 h, mouse, carrageenan-induced paw swelling, dosage 0.26 mg/kg, read-out: Swelling inhibition rate): 28.2% | inhibition in vivo at 13 mg/kg ([3]; Mus musculus, po, 3 h, mouse, carrageenan-induced paw swelling, dosage 13 mg/kg, read-out: Swelling inhibition rate): 60.3% | inhibition in vivo at 130 mg/kg ([3]; Mus musculus, po, 3 h, mouse, carrageenan-induced paw swelling, dosage 130 mg/kg, read-out: Swelling inhibition rate): 98.7% | change in vivo at 130 mg/kg ([3]; Mus musculus, po, 3 h, ICR mice, 130 mg/kg by gavage once a day for seven days, 180 min after onset of inflammation, read-out: Swelling degree): 0.7% | inhibition in vivo at 130 mg/kg ([3]; Mus musculus, po, 3 h, ICR mice, 130 mg/kg by gavage once a day for seven days, 180 min after onset of inflammation, read-out: Swelling inhibition rate): 96.4%

From patent US20230159583A1, “COMPOUND FOR TREATING GOUT, PREPARATION METHOD THEREFOR, AND USE THEREOF” (Huazhong Pharmaceutical Co., Ltd., priority 2020, published 2023)
